According to PubChem BioAssay (NCI):
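Values below derive from 48-hour exposures of cells grown in 96-well plates, with endpoints linearly interpolated between the two concentrations bracketing the appropriate inhibition level. At the GI50, growth is halved. TGI marks complete inhibition of growth.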

Columns and labels:
Experiment in all cases: inhibition of tumour cell growth, NCI panel, 48 h
M14 melanoma = test system: M14 melanoma
K-562 leukemia = test system: K-562 leukemia
MCF7 breast = test system: MCF7 breast
PC-3 prostate = test system: PC-3 prostate
RPMI-8226 leukemia = test system: RPMI-8226 leukemia
SR leukemia = test system: SR leukemia
UACC-257 melanoma = test system: UACC-257 melanoma
HCT-15 colon = test system: HCT-15 colon
MDA-MB-231 breast = test system: MDA-MB-231 breast
COLO 205 colon = test system: COLO 205 colon
SF-295 CNS = test system: SF-295 CNS
MALME-3M melanoma = test system: MALME-3M melanoma
SF-268 CNS = test system: SF-268 CNS
CAKI-1 renal = test system: CAKI-1 renal
786-0 renal = test system: 786-0 renal
MDA-N = test system: MDA-N
UACC-62 melanoma = test system: UACC-62 melanoma
SNB-75 CNS = test system: SNB-75 CNS
KM12 colon = test system: KM12 colon
T-47D breast = test system: T-47D breast
SW-620 colon = test system: SW-620 colon
HT29 colon = test system: HT29 colon
LOX IMVI melanoma = test system: LOX IMVI melanoma
MOLT-4 leukemia = test system: MOLT-4 leukemia
HOP-92 NSCLC = test system: HOP-92 NSCLC
IGROV1 ovarian = test system: IGROV1 ovarian
NCI-H23 lung = test system: NCI-H23 lung
HOP-62 NSCLC = test system: HOP-62 NSCLC
SK-MEL-28 melanoma = test system: SK-MEL-28 melanoma
DU-145 prostate = test system: DU-145 prostate
OVCAR-8 ovarian = test system: OVCAR-8 ovarian
CCRF-CEM leukemia = test system: CCRF-CEM leukemia
RXF 393 renal = test system: RXF 393 renal
HL-60(TB) leukemia = test system: HL-60(TB) leukemia
SK-OV-3 ovarian = test system: SK-OV-3 ovarian
TK-10 renal = test system: TK-10 renal
HCC-2998 colon = test system: HCC-2998 colon
EKVX NSCLC = test system: EKVX NSCLC
OVCAR-4 ovarian = test system: OVCAR-4 ovarian
A549 NSCLC = test system: A549 NSCLC
SK-MEL-5 melanoma = test system: SK-MEL-5 melanoma
MDA-MB-435 = test system: MDA-MB-435
SN12C renal = test system: SN12C renal
NCI-H226 lung = test system: NCI-H226 lung
BT-549 breast = test system: BT-549 breast
U251 CNS = test system: U251 CNS
HCT-116 colon = test system: HCT-116 colon
OVCAR-5 ovarian = test system: OVCAR-5 ovarian
SNB-19 CNS = test system: SNB-19 CNS
OVCAR-3 ovarian = test system: OVCAR-3 ovarian
NCI/ADR-RES ovarian = test system: NCI/ADR-RES ovarian
ACHN renal = test system: ACHN renal
UO-31 renal = test system: UO-31 renal
NCI-H460 lung = test system: NCI-H460 lung
A498 renal = test system: A498 renal
SK-MEL-2 melanoma = test system: SK-MEL-2 melanoma
HS 578T breast = test system: HS 578T breast
NCI-H522 lung = test system: NCI-H522 lung
SF-539 CNS = test system: SF-539 CNS

SMILES: c1csc(-c2sc(-c3ccsc3)cc2Cc2ccsc2)c1
- TGI (M14 melanoma): > 10 µM
- TGI (K-562 leukemia): > 10 µM
- TGI (MCF7 breast): > 10 µM
- TGI (PC-3 prostate): > 10 µM
- TGI (RPMI-8226 leukemia): > 10 µM
- TGI (SR leukemia): > 10 µM
- TGI (UACC-257 melanoma): > 10 µM
- TGI (HCT-15 colon): > 10 µM
- TGI (MDA-MB-231 breast): > 10 µM
- TGI (COLO 205 colon): > 10 µM
- TGI (SF-295 CNS): > 10 µM
- TGI (MALME-3M melanoma): > 10 µM
- TGI (SF-268 CNS): > 10 µM
- TGI (CAKI-1 renal): > 10 µM
- TGI (786-0 renal): > 10 µM
- TGI (MDA-N): > 10 µM
- TGI (UACC-62 melanoma): > 10 µM
- TGI (SNB-75 CNS): > 10 µM
- TGI (KM12 colon): > 10 µM
- TGI (T-47D breast): > 10 µM
- TGI (SW-620 colon): > 10 µM
- TGI (HT29 colon): > 10 µM
- TGI (LOX IMVI melanoma): > 10 µM
- TGI (MOLT-4 leukemia): > 10 µM
- TGI (HOP-92 NSCLC): > 10 µM
- TGI (IGROV1 ovarian): > 10 µM
- TGI (NCI-H23 lung): > 10 µM
- TGI (HOP-62 NSCLC): > 10 µM
- TGI (SK-MEL-28 melanoma): > 10 µM
- TGI (DU-145 prostate): > 10 µM
- TGI (OVCAR-8 ovarian): > 10 µM
- TGI (CCRF-CEM leukemia): > 10 µM
- TGI (RXF 393 renal): > 10 µM
- TGI (HL-60(TB) leukemia): > 10 µM
- TGI (SK-OV-3 ovarian): > 10 µM
- TGI (TK-10 renal): > 10 µM
- TGI (HCC-2998 colon): > 10 µM
- TGI (EKVX NSCLC): > 10 µM
- TGI (OVCAR-4 ovarian): > 10 µM
- TGI (A549 NSCLC): > 10 µM
- TGI (SK-MEL-5 melanoma): > 10 µM
- TGI (MDA-MB-435): > 10 µM
- TGI (SN12C renal): > 10 µM

SMILES: O=C1c2cccc3cccc(c23)C(=O)N1CC#Cc1ccc2c3c(cccc13)C(=O)N(CCN1CCNCC1)C2=O
- GI50 (M14 melanoma): 2.53 µM
- TGI (M14 melanoma): 6.19 µM
- GI50 (NCI-H226 lung): 20.3 µM
- TGI (NCI-H226 lung): 52.3 µM
- GI50 (K-562 leukemia): 1.16 µM
- TGI (K-562 leukemia): 2.75 µM
- GI50 (MCF7 breast): 1.8 µM
- TGI (MCF7 breast): 3.72 µM
- GI50 (BT-549 breast): 9.51 µM
- TGI (BT-549 breast): 34.4 µM
- GI50 (U251 CNS): 1.87 µM
- TGI (U251 CNS): 3.78 µM
- GI50 (PC-3 prostate): 3.22 µM
- TGI (PC-3 prostate): 11.6 µM
- GI50 (RPMI-8226 leukemia): 2.12 µM
- TGI (RPMI-8226 leukemia): 4.49 µM
- GI50 (SR leukemia): 1.98 µM
- TGI (SR leukemia): 4.78 µM
- GI50 (HCT-116 colon): 2.12 µM
- TGI (HCT-116 colon): 4.79 µM
- GI50 (UACC-257 melanoma): 18.5 µM
- TGI (UACC-257 melanoma): 38.1 µM
- GI50 (HCT-15 colon): 14.9 µM
- TGI (HCT-15 colon): > 100 µM
- GI50 (MDA-MB-231 breast): 1.85 µM
- TGI (MDA-MB-231 breast): 3.67 µM
- GI50 (COLO 205 colon): 3.3 µM
- TGI (COLO 205 colon): 12.4 µM
- GI50 (SF-295 CNS): 17.5 µM
- TGI (SF-295 CNS): 33.8 µM
- GI50 (MALME-3M melanoma): 1.84 µM
- TGI (MALME-3M melanoma): 3.7 µM
- GI50 (SF-268 CNS): 13.5 µM
- TGI (SF-268 CNS): 35.5 µM
- GI50 (CAKI-1 renal): 2.72 µM
- TGI (CAKI-1 renal): 10.5 µM
- GI50 (786-0 renal): 1.86 µM
- TGI (786-0 renal): 3.53 µM
- GI50 (UACC-62 melanoma): 1.88 µM
- TGI (UACC-62 melanoma): 4.44 µM
- GI50 (SNB-75 CNS): 4.49 µM
- TGI (SNB-75 CNS): 19.9 µM
- GI50 (KM12 colon): 2.12 µM
- TGI (KM12 colon): 4.6 µM
- GI50 (OVCAR-5 ovarian): 2.82 µM
- TGI (OVCAR-5 ovarian): 10.3 µM
- GI50 (SNB-19 CNS): 1.96 µM
- TGI (SNB-19 CNS): 4.18 µM
- GI50 (T-47D breast): 2.03 µM
- TGI (T-47D breast): 5.11 µM
- GI50 (SW-620 colon): 1.94 µM
- TGI (SW-620 colon): 3.79 µM
- GI50 (HT29 colon): 2 µM
- TGI (HT29 colon): 3.96 µM
- GI50 (OVCAR-3 ovarian): 3.6 µM
- TGI (OVCAR-3 ovarian): 12.4 µM
- GI50 (LOX IMVI melanoma): 1.94 µM
- TGI (LOX IMVI melanoma): 3.87 µM
- GI50 (NCI/ADR-RES ovarian): > 100 µM
- TGI (NCI/ADR-RES ovarian): > 100 µM
- GI50 (MOLT-4 leukemia): 2.17 µM
- TGI (MOLT-4 leukemia): 5.07 µM
- GI50 (HOP-92 NSCLC): 4 µM
- TGI (HOP-92 NSCLC): 20.5 µM
- GI50 (IGROV1 ovarian): 3.2 µM
- TGI (IGROV1 ovarian): 13 µM
- GI50 (ACHN renal): 2.75 µM
- TGI (ACHN renal): 7.96 µM
- GI50 (NCI-H23 lung): 2.38 µM
- TGI (NCI-H23 lung): 5.74 µM
- GI50 (HOP-62 NSCLC): 5.09 µM
- TGI (HOP-62 NSCLC): 30.1 µM
- GI50 (SK-MEL-28 melanoma): 1.9 µM
- TGI (SK-MEL-28 melanoma): 3.55 µM
- GI50 (DU-145 prostate): 2.06 µM
- TGI (DU-145 prostate): 4.12 µM
- GI50 (OVCAR-8 ovarian): 2.18 µM
- TGI (OVCAR-8 ovarian): 5.16 µM
- GI50 (UO-31 renal): 20.6 µM
- TGI (UO-31 renal): 84.8 µM
- GI50 (CCRF-CEM leukemia): 2.01 µM
- TGI (CCRF-CEM leukemia): 5.06 µM
- GI50 (RXF 393 renal): 2.7 µM
- TGI (RXF 393 renal): 10.4 µM
- GI50 (NCI-H460 lung): 1.92 µM
- TGI (NCI-H460 lung): 3.6 µM
- GI50 (HL-60(TB) leukemia): 4.12 µM
- TGI (HL-60(TB) leukemia): > 100 µM
- GI50 (SK-OV-3 ovarian): 25.7 µM
- TGI (SK-OV-3 ovarian): 62.6 µM
- GI50 (TK-10 renal): 2.61 µM
- TGI (TK-10 renal): 7.54 µM
- GI50 (HCC-2998 colon): 2.1 µM
- TGI (HCC-2998 colon): 4.94 µM
- GI50 (EKVX NSCLC): 15.7 µM
- TGI (EKVX NSCLC): 39.7 µM
- GI50 (A498 renal): 15.4 µM
- TGI (A498 renal): 31.1 µM
- GI50 (SK-MEL-2 melanoma): 18.5 µM
- TGI (SK-MEL-2 melanoma): 42 µM
- GI50 (HS 578T breast): 11.2 µM
- TGI (HS 578T breast): 33.7 µM
- GI50 (OVCAR-4 ovarian): 1.93 µM
- TGI (OVCAR-4 ovarian): 3.82 µM
- GI50 (A549 NSCLC): 3.19 µM
- TGI (A549 NSCLC): 12 µM
- GI50 (SK-MEL-5 melanoma): 18.3 µM
- TGI (SK-MEL-5 melanoma): 36.4 µM
- GI50 (MDA-MB-435): 1.86 µM
- TGI (MDA-MB-435): 3.47 µM
- GI50 (NCI-H522 lung): 2.03 µM
- TGI (NCI-H522 lung): 5.04 µM
- GI50 (SF-539 CNS): 1.82 µM
- TGI (SF-539 CNS): 3.39 µM
- GI50 (SN12C renal): 1.71 µM
- TGI (SN12C renal): 3.68 µM
